Measured values from PubChem BioAssay (NCI).
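Tested at 5 concentrations; 48 h exposure; 96-well plates; endpoints linearly interpolated, else capped at highest concentration. The concentration for 50% growth inhibition is given as GI50. TGI is the concentration that stops growth completely.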

How the values were obtained:
Experiment in all cases: NCI-60 cell line screen, 48 h; in the data active = GI50 below about 0.43 µM; inactive = the rest
RPMI-8226 leukemia = tested on: RPMI-8226 leukemia
UACC-257 melanoma = tested on: UACC-257 melanoma
HOP-62 NSCLC = tested on: HOP-62 NSCLC
SF-268 CNS = tested on: SF-268 CNS
MDA-MB-231 breast = tested on: MDA-MB-231 breast
ACHN renal = tested on: ACHN renal
NCI-H460 lung = tested on: NCI-H460 lung
HL-60(TB) leukemia = tested on: HL-60(TB) leukemia
OVCAR-8 ovarian = tested on: OVCAR-8 ovarian
EKVX NSCLC = tested on: EKVX NSCLC
CAKI-1 renal = tested on: CAKI-1 renal
786-0 renal = tested on: 786-0 renal
SF-539 CNS = tested on: SF-539 CNS
HS 578T breast = tested on: HS 578T breast
NCI-H23 lung = tested on: NCI-H23 lung
RXF 393 renal = tested on: RXF 393 renal
U251 CNS = tested on: U251 CNS
BT-549 breast = tested on: BT-549 breast
OVCAR-4 ovarian = tested on: OVCAR-4 ovarian
A549 NSCLC = tested on: A549 NSCLC
DU-145 prostate = tested on: DU-145 prostate
UACC-62 melanoma = tested on: UACC-62 melanoma
MALME-3M melanoma = tested on: MALME-3M melanoma
HCC-2998 colon = tested on: HCC-2998 colon
HCT-116 colon = tested on: HCT-116 colon
HT29 colon = tested on: HT29 colon
MDA-MB-435 = tested on: MDA-MB-435
MOLT-4 leukemia = tested on: MOLT-4 leukemia
T-47D breast = tested on: T-47D breast
SN12C renal = tested on: SN12C renal
SNB-19 CNS = tested on: SNB-19 CNS
LOX IMVI melanoma = tested on: LOX IMVI melanoma
SK-MEL-28 melanoma = tested on: SK-MEL-28 melanoma
TK-10 renal = tested on: TK-10 renal
SNB-75 CNS = tested on: SNB-75 CNS
SF-295 CNS = tested on: SF-295 CNS
UO-31 renal = tested on: UO-31 renal
SK-MEL-2 melanoma = tested on: SK-MEL-2 melanoma
SR leukemia = tested on: SR leukemia
HCT-15 colon = tested on: HCT-15 colon
NCI-H522 lung = tested on: NCI-H522 lung
COLO 205 colon = tested on: COLO 205 colon
CCRF-CEM leukemia = tested on: CCRF-CEM leukemia
M14 melanoma = tested on: M14 melanoma
MCF7 breast = tested on: MCF7 breast
KM12 colon = tested on: KM12 colon
OVCAR-5 ovarian = tested on: OVCAR-5 ovarian
HOP-92 NSCLC = tested on: HOP-92 NSCLC
PC-3 prostate = tested on: PC-3 prostate
NCI-H226 lung = tested on: NCI-H226 lung
IGROV1 ovarian = tested on: IGROV1 ovarian
OVCAR-3 ovarian = tested on: OVCAR-3 ovarian

Clc1ccc2c(c1)N(c1ncnc3ccc(-c4cnc5[nH]ncc5c4)cc13)CC2
inactive: GI50 (RPMI-8226 leukemia) 759 nM | GI50 (UACC-257 melanoma) > 100000 nM | GI50 (HOP-62 NSCLC) 463 nM | GI50 (SF-268 CNS) 538 nM | GI50 (MDA-MB-231 breast) 719 nM | GI50 (NCI-H460 lung) 463 nM | GI50 (OVCAR-8 ovarian) 966 nM | GI50 (786-0 renal) 689 nM | GI50 (SF-539 CNS) 645 nM | GI50 (NCI-H23 lung) 2680 nM | GI50 (U251 CNS) 9790 nM | GI50 (BT-549 breast) 676 nM | GI50 (OVCAR-4 ovarian) 747 nM | GI50 (UACC-62 melanoma) 460 nM | GI50 (MALME-3M melanoma) 1120 nM | GI50 (HCC-2998 colon) 1070 nM | GI50 (HCT-116 colon) 1150 nM | GI50 (MDA-MB-435) 804 nM | GI50 (MOLT-4 leukemia) 465 nM | GI50 (SNB-19 CNS) 1460 nM | GI50 (SK-MEL-28 melanoma) 770 nM | GI50 (TK-10 renal) 835 nM | GI50 (SF-295 CNS) 632 nM | GI50 (SK-MEL-2 melanoma) 7000 nM | GI50 (SR leukemia) 722 nM | GI50 (NCI-H522 lung) 2230 nM | GI50 (COLO 205 colon) 695 nM | GI50 (CCRF-CEM leukemia) 547 nM | GI50 (M14 melanoma) 869 nM | GI50 (KM12 colon) 3530 nM | GI50 (PC-3 prostate) 458 nM | GI50 (NCI-H226 lung) 896 nM | GI50 (OVCAR-3 ovarian) 471 nM
651 nM: TGI (HS 578T breast)
517 nM: TGI (SNB-75 CNS)
554 nM: TGI (IGROV1 ovarian)
970 nM: TGI (RXF 393 renal)
693 nM: TGI (T-47D breast)
> 100000 nM: TGI (RPMI-8226 leukemia) | TGI (UACC-257 melanoma) | TGI (HOP-62 NSCLC) | TGI (SF-268 CNS) | TGI (MDA-MB-231 breast) | TGI (ACHN renal) | TGI (NCI-H460 lung) | TGI (HL-60(TB) leukemia) | TGI (OVCAR-8 ovarian) | TGI (EKVX NSCLC) | TGI (CAKI-1 renal) | TGI (786-0 renal) | TGI (SF-539 CNS) | TGI (NCI-H23 lung) | TGI (U251 CNS) | TGI (BT-549 breast) | TGI (OVCAR-4 ovarian) | TGI (A549 NSCLC) | TGI (DU-145 prostate) | TGI (UACC-62 melanoma) | TGI (MALME-3M melanoma) | TGI (HCC-2998 colon) | TGI (HCT-116 colon) | TGI (HT29 colon) | TGI (MDA-MB-435) | TGI (MOLT-4 leukemia) | TGI (SN12C renal) | TGI (SNB-19 CNS) | TGI (LOX IMVI melanoma) | TGI (SK-MEL-28 melanoma) | TGI (TK-10 renal) | TGI (SF-295 CNS) | TGI (UO-31 renal) | TGI (SK-MEL-2 melanoma) | TGI (SR leukemia) | TGI (HCT-15 colon) | TGI (NCI-H522 lung) | TGI (COLO 205 colon) | TGI (CCRF-CEM leukemia) | TGI (M14 melanoma) | TGI (MCF7 breast) | TGI (KM12 colon) | TGI (OVCAR-5 ovarian) | TGI (HOP-92 NSCLC) | TGI (PC-3 prostate) | TGI (NCI-H226 lung) | TGI (OVCAR-3 ovarian)
active: GI50 (ACHN renal) 317 nM | GI50 (HL-60(TB) leukemia) 411 nM | GI50 (EKVX NSCLC) 338 nM | GI50 (CAKI-1 renal) 316 nM | GI50 (HS 578T breast) 162 nM | GI50 (RXF 393 renal) 229 nM | GI50 (A549 NSCLC) 330 nM | GI50 (DU-145 prostate) 351 nM | GI50 (HT29 colon) 344 nM | GI50 (T-47D breast) 42.4 nM | GI50 (SN12C renal) 407 nM | GI50 (LOX IMVI melanoma) 338 nM | GI50 (SNB-75 CNS) 80.4 nM | GI50 (UO-31 renal) 151 nM | GI50 (HCT-15 colon) 392 nM | GI50 (MCF7 breast) 228 nM | GI50 (OVCAR-5 ovarian) 396 nM | GI50 (HOP-92 NSCLC) 169 nM | GI50 (IGROV1 ovarian) 110 nM
